Reference: article PMC6332200, “Isolation and Identification of Cytotoxic Compounds from Aeschynomene fascicularis, a Mayan Medicinal Plant” (Molecules, 2015)
Several values for one entry are separate records, joined by “and”; a condition that tells them apart may be missing. Identical values can stand only once.

Legend:
[1] = Cytotoxicity MTT assay, MDCK normal cell line; type: cell-based; settings: dog, MDCK cells (normal cell line), read-out: Cytotoxic activity CC50
Method: (§1) Three types of cancer cell lines obtained from the American Type Culture Collection (ATCC) were cultured: two oral-laryngeal cancer cell lines, nasopharynx carcinoma (KB, ATCC-CCL-17) and laryngeal carcinoma (Hep-2, ATCC-CCL-23); two cervix-uterine cancer cell lines, cervix adenocarcinoma (HeLa, ATCC-CCL-2) and cervix squamous carcinoma (SiHa, ATCC-HTB-35); and two prostate cancer cell lines, prostate carcinoma (DU-145, ATCC-HTB-81) and prostate adenocarcinoma (PC-3, ATCC-CRL-1435); along with one normal cell line (MDCK, ATCC-CCL-34). The cells were cultured in sterile Costar T75 flasks containing DMEM (Gibco, Hong Kong, China), supplemented with fetal bovine serum (10%, v/v), 100 U/mL penicillin G, and […] streptomycin at 37 °C in an atmosphere of 5% CO2 (95% humidity). At 70%–80% confluence, cells were detached from the cultured flask by treatment with 0.05% trypsin-EDTA (Gibco), and a suspension of 5 × 10^4 cells/mL of viable cells was seeded in a 96-well microtiter plate (Costar, Washington, DC, USA) and incubated. Cytotoxicity was assessed by the MTT assay as previously described by Rahman. When cells reached 90% confluence in a microtiter plate, the DMEM was replaced with fresh medium and cells were incubated with compounds at various concentrations. […] The medium was aspirated, and the formazan product was solubilized with acidified isopropanol (0.4 N HCl). The amount of MTT-formazan is directly proportional to the number of living cells and was determined by measuring the optical density (OD) at 590 nm using a bioassay reader (Bio-Rad). All determinations were performed in triplicate. The cytotoxic and antiproliferative activities of tested compounds were calculated as the percentage of cells killed or the percentage of inhibition of cell proliferation, respectively, using the equation: growth inhibition (%) = (ODcontrol − ODsample/ODcontrol) × 100. […] In addition, the level of cytotoxicity on normal cells was evaluated by determining the selectivity index (SI) of each compound, which is calculated as the ratio of cytotoxicity or reduced cell growth on normal cells to cancer cells (SI = normal cells/cancer cells).

[2] = Cytotoxicity MTT assay, Hep-2 laryngeal carcinoma; type: cell-based, human; settings: dog MDCK normal cells versus Hep-2 laryngeal carcinoma cells; CC50 MDCK normal cells / Hep-2; read-out: Selectivity index (SI) of cytotoxic activity
Method: as §1

[3] = test system: Hep-2; experiment: Cytotoxicity MTT assay, Hep-2 laryngeal carcinoma; type: cell-based, human; settings: Homo sapiens; Hep-2, MTT, 72 h; read-out: Cytotoxic activity CC50
Method: as §1

[4] = Cytotoxicity MTT assay, KB nasopharynx carcinoma; type: cell-based, human; settings: human, MDCK normal cells versus KB nasopharynx carcinoma cells; CC50 MDCK normal cells / KB; read-out: Selectivity index (SI) of cytotoxic activity
Method: as §1

[5] = test system: KB; experiment: Cytotoxicity MTT assay, KB nasopharynx carcinoma; type: cell-based, human; settings: Homo sapiens; KB, MTT, 72 h; read-out: Cytotoxic activity CC50
Method: as §1

[6] = Cytotoxicity MTT assay, HeLa cervix adenocarcinoma; type: cell-based, human; settings: human, MDCK normal cells versus HeLa cervix adenocarcinoma cells; CC50 MDCK normal cells / HeLa; read-out: Selectivity index (SI) of cytotoxic activity
Method: as §1

[7] = test system: HeLa; experiment: Cytotoxicity MTT assay, HeLa cervix adenocarcinoma; type: cell-based, human; settings: Homo sapiens; HeLa, MTT, 72 h; read-out: Cytotoxic activity CC50
Method: as §1

[8] = Cytotoxicity MTT assay, SiHa cervix squamous carcinoma; type: cell-based, human; settings: human; CC50 MDCK normal cells / SiHa; read-out: Selectivity index (SI) of cytotoxic activity
Method: as §1

[9] = test system: SiHa; experiment: as above; type: cell-based, human; settings: Homo sapiens; SiHa, MTT, 72 h; read-out: Cytotoxic activity CC50
Method: as §1

[10] = Cytotoxicity MTT assay, DU-145 prostate carcinoma; type: cell-based, human; settings: human, MDCK normal cells versus DU-145 prostate carcinoma cells; CC50 MDCK normal cells / DU-145; read-out: Selectivity index (SI) of cytotoxic activity
Method: as §1

[11] = test system: DU-145; experiment: Cytotoxicity MTT assay, DU-145 prostate carcinoma; type: cell-based, human; settings: Homo sapiens; DU-145, MTT, 72 h; read-out: Cytotoxic activity CC50
Method: as §1

[12] = Cytotoxicity MTT assay, PC-3 prostate adenocarcinoma; type: cell-based, human; settings: human, MDCK normal cells versus PC-3 prostate adenocarcinoma cells; CC50 MDCK normal cells / PC-3; read-out: Selectivity index (SI) of cytotoxic activity
Method: as §1

[13] = test system: PC-3; experiment: as above; type: cell-based, human; settings: Homo sapiens; PC-3, MTT, 72 h; read-out: Cytotoxic activity CC50
Method: as §1

[14] = test system: MDCK; experiment: Antiproliferative sulforhodamine B assay, MDCK normal cell line; type: cell-based; settings: Canis lupus familiaris, SRB, 48 h
Method: (§2) Three types of cancer cell lines obtained from the American Type Culture Collection (ATCC) were cultured: two oral-laryngeal cancer cell lines, nasopharynx carcinoma (KB, ATCC-CCL-17) and laryngeal carcinoma (Hep-2, ATCC-CCL-23); two cervix-uterine cancer cell lines, cervix adenocarcinoma (HeLa, ATCC-CCL-2) and cervix squamous carcinoma (SiHa, ATCC-HTB-35); and two prostate cancer cell lines, prostate carcinoma (DU-145, ATCC-HTB-81) and prostate adenocarcinoma (PC-3, ATCC-CRL-1435); along with one normal cell line (MDCK, ATCC-CCL-34). The cells were cultured in sterile Costar T75 flasks containing DMEM (Gibco, Hong Kong, China), supplemented with fetal bovine serum (10%, v/v), 100 U/mL penicillin G, and […] streptomycin at 37 °C in an atmosphere of 5% CO2 (95% humidity). At 70%–80% confluence, cells were detached from the cultured flask by treatment with 0.05% trypsin-EDTA (Gibco), and a suspension of 5 × 10^4 cells/mL of viable cells was seeded in a 96-well microtiter plate (Costar, Washington, DC, USA) and incubated.
(§3) The growth inhibition of cancer cells was evaluated by the sulforhodamine B method. When cells reached 70% confluence in a microtiter plate, the medium was replaced with DMEM 5% FBS and samples at various concentrations. After 48 h, the medium was discarded, and cells were fixed by adding 50 μL of 10% trichloroacetic acid (TCA, Sigma-Aldrich Chemical, St. Louis, MO, USA). The cells were then incubated at 4 °C for 30 min; TCA was drained off, and the plates were left to dry. Then, 50 μL of SRB stain (10 mg of 1% acetic acid, Sigma) were added to each well for 30 min. Finally, the plates were washed four times with 1% acetic acid (100 μL). The OD was measured at 540 nm using an ELISA reader (Bio-Rad). Docetaxel was used as a positive control, whereas cells incubated only with 0.05% of DMSO were used as a negative control. All determinations were performed in triplicate.
(§4) The cytotoxic and antiproliferative activities of tested compounds were calculated as the percentage of cells killed or the percentage of inhibition of cell proliferation, respectively, using the equation: growth inhibition (%) = (ODcontrol − ODsample/ODcontrol) × 100. […] In addition, the level of cytotoxicity on normal cells was evaluated by determining the selectivity index (SI) of each compound, which is calculated as the ratio of cytotoxicity or reduced cell growth on normal cells to cancer cells (SI = normal cells/cancer cells). It is generally considered that biological efficacy is not due to general toxicity when SI ≥ 10 [17].

[15] = test system: Hep-2; experiment: Antiproliferative sulforhodamine B assay, Hep-2; type: cell-based, human; settings: for IC50: Homo sapiens, Hep-2, SRB, 48 h
Method: as §2, §3, §4

[16] = test system: KB; experiment: Antiproliferative sulforhodamine B assay, KB; type: cell-based, human; settings: for IC50: Homo sapiens, KB, SRB, 48 h; for Selectivity index (SI) of antiproliferative activity: IC50 MDCK normal cells / KB
Method: as §2, §3, §4

[17] = test system: HeLa; experiment: Antiproliferative sulforhodamine B assay, HeLa; type: cell-based, human; settings: for IC50: Homo sapiens, HeLa, SRB, 48 h
Method: as §2, §3, §4

[18] = test system: SiHa; experiment: Antiproliferative sulforhodamine B assay, SiHa; type: cell-based, human; settings: for IC50: Homo sapiens, SiHa, SRB, 48 h; for Selectivity index (SI) of antiproliferative activity: IC50 MDCK normal cells / SiHa
Method: as §2, §3, §4

[19] = test system: DU-145; experiment: Antiproliferative sulforhodamine B assay, DU-145; type: cell-based, human; settings: for IC50: Homo sapiens, DU-145, SRB, 48 h
Method: as §2, §3, §4

[20] = test system: PC-3; experiment: Antiproliferative sulforhodamine B assay, PC-3; type: cell-based; settings: Homo sapiens; PC-3, SRB, 48 h
Method: as §2, §3, §4

Row | Structure (SMILES) | CC50 at 72 h [1] | selectivity ratio at 72 h [2] | CC50 [3] | selectivity ratio at 72 h [4] | CC50 [5] | selectivity ratio at 72 h [6] | CC50 [7] | selectivity ratio at 72 h [8] | CC50 [9] | selectivity ratio at 72 h [10] | CC50 [11] | selectivity ratio at 72 h [12] | CC50 [13] | IC50 [14] | IC50 [15] | IC50 [16] | IC50 [17] | IC50 [18] | IC50 [19] | IC50 [20] | further results
1 | C=CC(C)(C)c1cc(C2COc3cc(O)ccc3C2)c(O)c(O)c1OC (stereo not drawn) [Compound 4, secundiflorol G] | 29.7 µg/mL and 83.4 µM | 7.6 | 3.9 µg/mL and 11 µM | 5.5 | 5.3 µg/mL and 15 µM | 3.6 | 8.1 µg/mL and 23 µM | 2 | 14.7 µg/mL and 41.3 µM | 1.3 | 21.5 µg/mL and 60.6 µM | 1.8 | 16.5 µg/mL and 46.4 µM | 25.4 µg/mL and 72 µM | > 100 µM | > 100 µM | > 100 µM | 21.2 µg/mL and 60 µM | > 100 µM | > 100 µM | Selectivity index (SI) of antiproliferative activity [18]: 1.2
2 | CC(C)=CCc1cc(C(=O)/C=C/c2ccccc2)c(O)c(CC=C(C)C)c1O [Compound 2, spinochalcone A] | 92.1 µg/mL and 245 µM |  | > 100 µg/mL |  | > 100 µg/mL |  | > 100 µg/mL |  | > 100 µg/mL | 15 | 6.1 µg/mL and 16.3 µM | 9.4 | 9.7 µg/mL and 26 µM | 18.7 µg/mL and 50 µM | > 100 µM | 6 µg/mL and 16 µM | > 100 µM | > 100 µM | > 100 µM | > 100 µM | Selectivity index (SI) of antiproliferative activity [16]: 3.1
3 | CC(=O)O[C@@]12CO[C@@H]1C[C@H](O)[C@@]1(C)C(=O)[C@H](O)C3=C(C)[C@@H](OC(=O)[C@H](O)[C@@H](NC(=O)OC(C)(C)C)c4ccccc4)C[C@@](O)([C@@H](OC(=O)c4ccccc4)[C@H]21)C3(C)C [Docetaxel, reference compound] | 1.1 µg/mL and 1.4 µM | 14 | 0.07 µg/mL and 100 nM | 4.6 | 0.2 µg/mL and 300 nM | 5.6 | 0.19 µg/mL and 250 nM | 6.3 | 0.17 µg/mL and 220 nM | 140 | 0.007 µg/mL and 10 nM | 14 | 0.07 µg/mL and 100 nM | 0.11 µg/mL and 140 nM | 0.05 µg/mL and 70 nM | 0.04 µg/mL and 60 nM | 0.03 µg/mL and 40 nM | 0.07 µg/mL and 100 nM | 0.01 µg/mL and 20 nM | 0.007 µg/mL and 10 nM | Selectivity index (SI) of antiproliferative activity ([15]; IC50 MDCK normal cells / Hep-2): 2.0; Selectivity index (SI) of antiproliferative activity [16]: 2.3; Selectivity index (SI) of antiproliferative activity ([17]; IC50 MDCK normal cells / HeLa): 3.5; Selectivity index (SI) of antiproliferative activity [18]: 1.4; Selectivity index (SI) of antiproliferative activity ([19]; IC50 MDCK normal cells / DU-145): 7
